In brackets after ≈: the same amount, converted by molar mass.
How the values were obtained:
Type in all cases: functional
[1] = system: Rattus norvegicus; assay: (§1) Antioxidant activity in CCL4-intoxicated Wistar albino rat assessed as liver cytosolic glutathione peroxidase activity per mg protein at 100 mg/kg, ip administered for 7 consecutive days after DL-alpha-tocopherol acetate treatment followed by CCL4 dosing measured after 24 hrs by H2O2 based spectrophotometric analysis (reference value: 0.28 +/- 0.01 U)
[2] = Antifungal activity against Fusarium oxysporum M42 after 72 hrs by agar dilution method
[3] = system: Staphylococcus aureus; assay: Antibacterial activity against methicillin-resistant Staphylococcus aureus 198-2 after 18 to 20 hrs by two-fold microbroth dilution method
[4] = system: Staphylococcus aureus; assay: Antibacterial activity against Staphylococcus aureus ATCC 11632 after 18 to 20 hrs by two-fold microbroth dilution method
[5] = system: Candida albicans; assay: Antifungal activity against Candida albicans ATCC 7754 after 72 hrs by agar dilution method; settings: ATCC 7754, 72 h
[6] = system: Escherichia coli; assay: Antibacterial activity against Escherichia coli ATCC 25922 after 18 to 20 hrs by two-fold microbroth dilution method
[7] = system: Rattus norvegicus; assay: as §1, with “superoxide dismutase” for “glutathione peroxidase”, “xanthine” for “H2O2”, “assay” for “spectrophotometric analysis”, “5.27” for “0.28”, “0.22” for “0.01”
[8] = system: Bacillus subtilis; assay: Antibacterial activity against Bacillus subtilis ATCC 11774 after 18 to 20 hrs by two-fold microbroth dilution method
[9] = system: Pseudomonas aeruginosa; assay: Antibacterial activity against Pseudomonas aeruginosa […] after 18 to 20 hrs by two-fold microbroth dilution method
[10] = system: Klebsiella aerogenes; assay: Antibacterial activity against Enterobacter aerogenes ATCC 13048 after 18 to 20 hrs by two-fold microbroth dilution method
[11] = system: Aspergillus niger; assay: Antifungal activity against Aspergillus niger 439 after 72 hrs by agar dilution method; settings: Aspergillus niger, 439, 72 h
[12] = system: Rattus norvegicus; assay: as §1, with “catalase” for “glutathione peroxidase”, “assay” for “spectrophotometric analysis”, “220.15” for “0.28”, “11.43” for “0.01”
[13] = system: Klebsiella pneumoniae; assay: Antibacterial activity against Klebsiella pneumoniae ATCC 4352 after 18 to 20 hrs by two-fold microbroth dilution method
[14] = system: Staphylococcus aureus; assay: Antibacterial activity against methicillin-resistant Staphylococcus aureus 198-1 after 18 to 20 hrs by two-fold microbroth dilution method
[15] = Antifungal activity against Saccharomyces cerevisiae SH20 after 72 hrs by agar dilution method
[16] = system: Staphylococcus aureus; assay: Antibacterial activity against methicillin-resistant Staphylococcus aureus 198-3 after 18 to 20 hrs by two-fold microbroth dilution method
[17] = system: Staphylococcus epidermidis; assay: Antibacterial activity against Staphylococcus epidermidis ATCC 12228 after 18 to 20 hrs by two-fold microbroth dilution method

SMILES	Activity [1] [U]	MIC [2] [µM]	MIC [3] [µM]	MIC [4] [µM]	MIC [5] [µM]	MIC [6] [µM]	Activity [7] [U]	MIC [8] [µM]	MIC [9] [µM]	MIC [10] [µM]	MIC [11] [µM]	Activity [12] [U]	MIC [13] [µM]	MIC [14] [µM]	MIC [15] [µM]	MIC [16] [µM]	MIC [17] [µM]
CC(=O)OC[C@H]1O[C@@H](NC(=S)N/N=C2/C(=O)Nc3ccc(I)cc32)[C@H](OC(C)=O)[C@@H](OC(C)=O)[C@@H]1OC(C)=O	0.35	12.5 (≈ 8.46 µg/mL)	6.25 (≈ 4.23 µg/mL)	6.25 (≈ 4.23 µg/mL)	6.25 (≈ 4.23 µg/mL)	50 (≈ 33.8 µg/mL)	10.85	6.25 (≈ 4.23 µg/mL)	25 (≈ 16.9 µg/mL)	50 (≈ 33.8 µg/mL)	6.25 (≈ 4.23 µg/mL)	399.75	25 (≈ 16.9 µg/mL)	6.25 (≈ 4.23 µg/mL)	6.25 (≈ 4.23 µg/mL)	6.25 (≈ 4.23 µg/mL)	6.25 (≈ 4.23 µg/mL)
Clc1ccc(COC(Cn2ccnc2)c2ccc(Cl)cc2Cl)c(Cl)c1 (centres undefined) [MICONAZOLE]		3.12 (≈ 1.3 µg/mL)			3.12 (≈ 1.3 µg/mL)						1.56 (≈ 0.649 µg/mL)				3.12 (≈ 1.3 µg/mL)		
CC(=O)OC[C@H]1O[C@@H](NC(=S)N/N=C2/C(=O)Nc3c(C)cccc32)[C@H](OC(C)=O)[C@@H](OC(C)=O)[C@@H]1OC(C)=O	1.69	25 (≈ 14.1 µg/mL)	12.5 (≈ 7.06 µg/mL)	12.5 (≈ 7.06 µg/mL)	100 (≈ 56.5 µg/mL)	25 (≈ 14.1 µg/mL)	4.6	25 (≈ 14.1 µg/mL)	25 (≈ 14.1 µg/mL)	25 (≈ 14.1 µg/mL)	100 (≈ 56.5 µg/mL)	250.63	25 (≈ 14.1 µg/mL)	12.5 (≈ 7.06 µg/mL)	25 (≈ 14.1 µg/mL)	12.5 (≈ 7.06 µg/mL)	12.5 (≈ 7.06 µg/mL)
O=C(O)c1cn(C2CC2)c2cc(N3CCNCC3)c(F)cc2c1=O [CIPROFLOXACIN]				3.12 (≈ 1.03 µg/mL)		1.56 (≈ 0.517 µg/mL)		3.12 (≈ 1.03 µg/mL)	1.56 (≈ 0.517 µg/mL)	1.56 (≈ 0.517 µg/mL)			1.56 (≈ 0.517 µg/mL)				3.12 (≈ 1.03 µg/mL)
CC(=O)OC[C@H]1O[C@@H](NC(=S)N/N=C2/C(=O)Nc3ccc([N+](=O)[O-])cc32)[C@H](OC(C)=O)[C@@H](OC(C)=O)[C@@H]1OC(C)=O	1.89	100 (≈ 59.6 µg/mL)	200 (≈ 119 µg/mL)	200 (≈ 119 µg/mL)	100 (≈ 59.6 µg/mL)	50 (≈ 29.8 µg/mL)	6.45	100 (≈ 59.6 µg/mL)	50 (≈ 29.8 µg/mL)	50 (≈ 29.8 µg/mL)	100 (≈ 59.6 µg/mL)	283.53	50 (≈ 29.8 µg/mL)	200 (≈ 119 µg/mL)	100 (≈ 59.6 µg/mL)	200 (≈ 119 µg/mL)	100 (≈ 59.6 µg/mL)
CN[C@H](CC(C)C)C(=O)N[C@H]1C(=O)N[C@@H](CC(N)=O)C(=O)N[C@H]2C(=O)N[C@H]3C(=O)N[C@H](C(=O)N[C@H](C(=O)O)c4cc(O)cc(O)c4-c4cc3ccc4O)[C@H](O)c3ccc(c(Cl)c3)Oc3cc2cc(c3O[C@@H]2O[C@H](CO)[C@@H](O)[C@H](O)[C@H]2O[C@H]2C[C@](C)(N)[C@H](O)[C@H](C)O2)Oc2ccc(cc2Cl)[C@H]1O [VANCOMYCIN]			1.65 (≈ 2.39 µg/mL)	1.21 (≈ 1.75 µg/mL)				0.83 (≈ 1.2 µg/mL)						1.65 (≈ 2.39 µg/mL)		1.65 (≈ 2.39 µg/mL)	2.1 (≈ 3.04 µg/mL)
COc1cccc(OC)c1C(=O)N[C@@H]1C(=O)N2[C@@H]1SC(C)(C)[C@@H]2C(=O)O [METHICILLIN]			> 200											> 200		> 200	
Oc1ccc(/C=C/c2cc(O)cc(O)c2)cc1 [RESVERATROL]	0.33						7.31					282.12					

Source: ChEMBL document CHEMBL3872214, “Synthesis and evaluation of in vivo antioxidant, in vitro antibacterial, MRSA and antifungal activity of novel substituted isatin N-(2,3,4,6-tetra-O-acetyl-β-d-glucopyranosyl)thiosemicarbazones” (Eur J Med Chem, 2016)
